The source of these data is paper PMC4076210, “Discovery of Novel AKT Inhibitors with Enhanced Anti-Tumor Effects in Combination with the MEK Inhibitor” (PLoS ONE, 2014).

One may read the inhibition as the change of the read-out against control, counted positive when it falls. For orientation: IC50 means the concentration that inhibits the measured activity by half. The low end stands for greater potency in that assay, the high end for weaker potency in that assay. The TGI is the reduction of tumour growth relative to the control group.

The target in one series is T1, BrSK1(h) (Homo sapiens, UniProt Q8TDC3).
T1 construct: purchased Millipore KinaseProfiler
T1 sequence (Q8TDC3 1-778): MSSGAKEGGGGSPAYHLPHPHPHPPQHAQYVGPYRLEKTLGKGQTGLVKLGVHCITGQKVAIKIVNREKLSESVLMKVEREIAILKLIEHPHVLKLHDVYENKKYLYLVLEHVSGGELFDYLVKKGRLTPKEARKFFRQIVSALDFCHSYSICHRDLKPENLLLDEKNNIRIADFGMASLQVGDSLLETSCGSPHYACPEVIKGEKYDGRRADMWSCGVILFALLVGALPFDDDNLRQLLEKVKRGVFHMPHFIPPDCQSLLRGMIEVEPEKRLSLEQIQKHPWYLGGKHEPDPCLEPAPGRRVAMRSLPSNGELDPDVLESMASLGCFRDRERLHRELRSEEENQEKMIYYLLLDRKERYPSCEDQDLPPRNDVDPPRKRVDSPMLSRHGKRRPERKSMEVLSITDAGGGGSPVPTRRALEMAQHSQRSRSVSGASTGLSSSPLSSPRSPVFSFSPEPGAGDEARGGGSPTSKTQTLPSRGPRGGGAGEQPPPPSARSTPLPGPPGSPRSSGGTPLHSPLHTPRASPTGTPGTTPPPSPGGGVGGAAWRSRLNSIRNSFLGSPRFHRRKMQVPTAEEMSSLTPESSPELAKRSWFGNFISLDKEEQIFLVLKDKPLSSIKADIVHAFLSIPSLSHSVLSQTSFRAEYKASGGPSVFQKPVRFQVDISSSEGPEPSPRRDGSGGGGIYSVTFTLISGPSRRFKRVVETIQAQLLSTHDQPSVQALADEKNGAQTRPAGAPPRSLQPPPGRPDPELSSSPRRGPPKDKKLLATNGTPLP
The series is described as follows: Kinase panel. Format: biochemical.

The target in another series is T2, EphA4(h) (Homo sapiens, UniProt P54764).
T2 construct: purchased Millipore KinaseProfiler
T2 sequence (P54764 20-986): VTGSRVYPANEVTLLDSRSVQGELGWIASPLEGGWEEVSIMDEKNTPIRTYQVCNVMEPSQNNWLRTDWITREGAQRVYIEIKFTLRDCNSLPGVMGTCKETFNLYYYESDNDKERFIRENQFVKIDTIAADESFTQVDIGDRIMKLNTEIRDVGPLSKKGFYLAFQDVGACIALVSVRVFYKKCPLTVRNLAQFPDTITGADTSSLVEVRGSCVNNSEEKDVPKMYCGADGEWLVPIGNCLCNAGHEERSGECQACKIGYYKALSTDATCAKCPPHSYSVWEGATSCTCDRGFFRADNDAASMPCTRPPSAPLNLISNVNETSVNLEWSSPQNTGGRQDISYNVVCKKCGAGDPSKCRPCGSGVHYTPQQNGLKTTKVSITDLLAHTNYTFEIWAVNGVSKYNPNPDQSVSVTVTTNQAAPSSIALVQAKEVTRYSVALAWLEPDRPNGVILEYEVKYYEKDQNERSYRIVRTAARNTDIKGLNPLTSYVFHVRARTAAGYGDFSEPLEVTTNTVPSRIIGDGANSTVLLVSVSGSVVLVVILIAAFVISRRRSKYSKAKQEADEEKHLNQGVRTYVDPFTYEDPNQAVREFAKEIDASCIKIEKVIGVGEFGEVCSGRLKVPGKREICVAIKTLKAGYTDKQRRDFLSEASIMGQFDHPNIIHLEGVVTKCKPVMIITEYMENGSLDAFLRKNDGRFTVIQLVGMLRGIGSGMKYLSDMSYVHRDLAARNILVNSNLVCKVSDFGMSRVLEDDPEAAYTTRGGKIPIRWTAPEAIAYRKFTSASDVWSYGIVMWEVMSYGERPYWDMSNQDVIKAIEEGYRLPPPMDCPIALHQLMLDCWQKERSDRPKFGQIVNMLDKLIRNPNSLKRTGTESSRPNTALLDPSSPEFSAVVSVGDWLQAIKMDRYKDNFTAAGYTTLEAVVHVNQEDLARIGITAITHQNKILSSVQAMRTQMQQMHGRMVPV
Kind of series: Kinase panel. The format is biochemical.

A further series concerns the target T3, PKCβII(h) (Homo sapiens, UniProt P05771).
T3 construct: purchased Millipore KinaseProfiler
Kind of series: Kinase panel. Format: biochemical.

The next series concerns the target T4, STK33(h) (Homo sapiens, UniProt Q9BYT3).
T4 construct: purchased Millipore KinaseProfiler
The series is described as follows: Kinase panel. Format: biochemical.

For the next series, the target named is T5, VRK2(h) (Homo sapiens, UniProt Q86Y07).
T5 construct: purchased Millipore KinaseProfiler
T5 sequence (Q86Y07 whole entry): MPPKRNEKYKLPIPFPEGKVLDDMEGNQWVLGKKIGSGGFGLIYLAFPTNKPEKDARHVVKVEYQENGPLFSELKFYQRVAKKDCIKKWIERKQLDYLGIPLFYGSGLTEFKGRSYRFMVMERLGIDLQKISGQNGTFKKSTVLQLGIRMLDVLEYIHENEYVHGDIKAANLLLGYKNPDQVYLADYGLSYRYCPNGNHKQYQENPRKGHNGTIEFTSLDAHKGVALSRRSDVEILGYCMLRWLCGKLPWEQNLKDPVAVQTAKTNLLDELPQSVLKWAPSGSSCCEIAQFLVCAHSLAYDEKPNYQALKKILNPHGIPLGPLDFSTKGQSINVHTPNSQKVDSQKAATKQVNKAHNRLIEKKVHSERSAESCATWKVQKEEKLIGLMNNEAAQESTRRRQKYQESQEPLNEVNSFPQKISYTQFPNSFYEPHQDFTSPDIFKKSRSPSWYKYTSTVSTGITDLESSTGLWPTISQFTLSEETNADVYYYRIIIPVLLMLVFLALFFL
Kind of series: Kinase panel. The format is biochemical.

Another series has as its target PKCβ1 (Homo sapiens, UniProt P05771). Kind of series: Kinase IC50 assay. Format: biochemical.
A further series concerns the target PKCβ2 (Homo sapiens, UniProt P05771). Kind of series: Kinase IC50 assay. The format is biochemical.
The next series has as its target T6, CLK2(h) (Homo sapiens, UniProt P49760).
T6 construct: purchased Millipore KinaseProfiler
Kind of series: Kinase panel. The format is biochemical.

For another series, the target named is T7, CLK3(h) (Homo sapiens, UniProt P49761).
T7 construct: purchased Millipore KinaseProfiler
T7 sequence (P49761 whole entry): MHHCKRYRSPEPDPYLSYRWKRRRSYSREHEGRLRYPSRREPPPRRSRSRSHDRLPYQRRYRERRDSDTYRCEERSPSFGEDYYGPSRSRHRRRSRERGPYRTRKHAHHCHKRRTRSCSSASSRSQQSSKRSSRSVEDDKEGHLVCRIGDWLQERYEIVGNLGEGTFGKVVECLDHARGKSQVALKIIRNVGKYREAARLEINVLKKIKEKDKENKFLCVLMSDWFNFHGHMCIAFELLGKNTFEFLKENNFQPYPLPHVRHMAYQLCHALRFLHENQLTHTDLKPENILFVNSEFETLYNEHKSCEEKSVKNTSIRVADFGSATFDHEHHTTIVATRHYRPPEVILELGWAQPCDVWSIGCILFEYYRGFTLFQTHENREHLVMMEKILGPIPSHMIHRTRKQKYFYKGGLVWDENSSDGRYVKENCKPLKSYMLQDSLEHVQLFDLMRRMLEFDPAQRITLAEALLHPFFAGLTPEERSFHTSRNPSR
The series is described as follows: Kinase panel. Format: biochemical.

The target in another series is T8, PKBα(h) (Homo sapiens, UniProt P31749).
T8 construct: purchased Millipore KinaseProfiler
T8 sequence (P31749 whole entry): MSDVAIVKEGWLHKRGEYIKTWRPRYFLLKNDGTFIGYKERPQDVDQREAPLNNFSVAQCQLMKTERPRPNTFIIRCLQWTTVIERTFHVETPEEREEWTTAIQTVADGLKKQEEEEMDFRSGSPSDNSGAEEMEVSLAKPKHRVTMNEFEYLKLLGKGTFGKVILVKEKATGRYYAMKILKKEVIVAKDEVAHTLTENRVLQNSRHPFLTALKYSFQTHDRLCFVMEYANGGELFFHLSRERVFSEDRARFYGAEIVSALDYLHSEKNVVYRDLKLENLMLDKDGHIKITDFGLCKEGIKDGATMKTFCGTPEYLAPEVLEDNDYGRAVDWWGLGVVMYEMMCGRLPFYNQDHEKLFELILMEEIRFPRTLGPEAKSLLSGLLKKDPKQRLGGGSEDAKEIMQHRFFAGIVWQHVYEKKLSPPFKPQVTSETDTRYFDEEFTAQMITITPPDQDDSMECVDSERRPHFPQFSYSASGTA
Kind of series: Kinase panel. The format is biochemical.

For a further series, the target named is T9, PKBβ(h) (Homo sapiens, UniProt P31751).
T9 construct: purchased Millipore KinaseProfiler
T9 sequence (P31751 whole entry): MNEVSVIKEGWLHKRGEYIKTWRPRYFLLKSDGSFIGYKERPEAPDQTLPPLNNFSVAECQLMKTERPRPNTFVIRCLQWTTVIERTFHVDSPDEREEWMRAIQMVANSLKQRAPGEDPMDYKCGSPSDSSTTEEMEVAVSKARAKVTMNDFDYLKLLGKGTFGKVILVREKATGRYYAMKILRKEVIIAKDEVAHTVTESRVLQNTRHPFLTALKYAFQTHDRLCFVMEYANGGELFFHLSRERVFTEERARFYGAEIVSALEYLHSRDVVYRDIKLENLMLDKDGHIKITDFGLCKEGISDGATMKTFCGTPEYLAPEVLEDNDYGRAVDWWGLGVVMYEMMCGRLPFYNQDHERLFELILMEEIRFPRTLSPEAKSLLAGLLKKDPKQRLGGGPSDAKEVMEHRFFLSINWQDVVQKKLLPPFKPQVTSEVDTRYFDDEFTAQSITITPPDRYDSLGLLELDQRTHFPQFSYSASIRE
Kind of series: Kinase panel. Format: biochemical.

Another series concerns the target T10, PKBγ(h) (Homo sapiens, UniProt Q9Y243).
T10 construct: purchased Millipore KinaseProfiler
Kind of series: Kinase panel. Format: biochemical.

For series [1], the system named is FOXO_GFP translocation in MDA-MB-468. The series is described as follows: FOXO3A-GFP translocation assay. Format: cell-based, human. Conditions: MDA-MB-468, 1 h, mean ± std dev.
Description: MDA-MB-468 cells stably transfected with FOXO3A-GFP were plated at 1000 cells/96 well and allowed to adhere overnight. Cells were treated with DMSO or AKT inhibitor (0-10 µM) for 1 h. Plates were centrifuged at 1200 rpm for 10 min, and the medium aspirated. Cells were fixed with 200 μL of 4% paraformaldehyde (Alfa Aesar, Wood Hill, MA), and DAPI (80 ng/mL, Roche, Branchburg, NJ) was added to each well and incubated for 20 min at room temperature. […] Five fields per well were imaged to achieve ≥250 nuclei count per well. A ratio of nuclear to cytoplasmic intensity was calculated by the software. The formula used to calculate percentage nuclear translocation = (Fluorescence sample- Fluorescence DMSO)/ (Fluorescence 10 µM treatment sample- Fluorescence DMSO)*100. The calculation produces a scale of 0-100% with 100% being 10 µM of compound treatment and 0 being DMSO treatment. The normalized values were then plotted in the XLFit 4 parameter curve fitting program to generate EC50 values.
A further series deals with A3 cells. The series is described as follows: Cell cycle analysis. The format is cell-based, human. The following applies: A3, 1 µM. Here is the method:
(§1) Cells were plated in 96 well plates at a density of 3000-5000 cells/well and allowed to adhere overnight. Cells were treated with DMSO or various concentrations of drug for 72 h, fixed and stained with propidium iodide to stain nuclei (Vindelov, 1982). Cells were analyzed in a flow cytometer (FACSCalibur; BD Biosciences, Franklin Lakes, NJ) and the fraction of cells in each phase of cell cycle was determined using the cell cycle analysis platform contained within the FlowJo software (Tree Star, Ashland, OR).

A further series has as its system BT474 cells. Kind of series: Cell cycle analysis. Format: cell-based, human. The following applies: BT474, evident at 1 µM. As for the experimental part:
as §1

The test system of a further series is I9.2 cells. The series is described as follows: Cell cycle analysis. The following applies: I9.2, 1 µM. Format: cell-based, human. Here is the method:
as §1

For a further series, the system named is LNCaP cells. Kind of series: Cell cycle analysis. The format is cell-based, human. The following applies: various concentrations. As for the experimental part: as §1
Series [2] is described as follows: Compound concentration in blood and tumor (HPLC/MS/MS). Format: in vivo, mouse.
Description: Concentration of the test compounds in the tissue and blood was analyzed using protein precipitation with acetonitrile, followed by HPLC/MS/MS analysis using positive ion atmospheric pressure chemical ionization or Turbo ionspray ionization (API 4000 or API 5000, Applied Biosystems).
The pharmacodynamic studies were carried out in SCID mice bearing BT474 tumor xenografts. […] Concentration of the test compounds was analysed by HPLC/MS/MS analysis.
The next series has as its system CAPAN-2 tumor xenografts. Kind of series: Xenograft tumor growth inhibition, combination with MEK inhibitor. Conditions: 30 mg/kg, day 69. Format: in vivo, mouse. Here is the method:
(§2) Tumors were initiated by injecting either cells (SKOV3, CAPAN-2 and HPAC) or a tumor fragments (BT474) subcutaneously into 6–8 week female athymic nude (SKOV3) and SCID (all others) mice. Once tumors reached between 120 and 300 mm^3, mice were randomized according to tumor volume into groups of n = 7–10 mice per treatment. GSK2110183 and GSK2141795 were administered daily at various doses by oral gavage. In combination experiments, GSK1120212 was also administered daily by oral gavage. Tumor volumes and body weight were measured twice weekly, tumor volume was measured with calipers and calculated using equation: […]. Results are represented as percent inhibition on completion of dosing = 100 x [1- average growth of drug-treated population/average growth of vehicle-treated control population].

The next series has as its system HPAC tumor xenografts. Described as above. The format is in vivo, mouse. The following applies: 30 mg/kg daily, day 42. As for the experimental part: as §2
The next series relates to cancer patients. The following applies: unselected patient population; cited from earlier work.

The structures appear in SMILES notation. Where “and” joins values, the source holds several entries; their conditions need not be identical. Equal values may be shown once. Read-outs that look alike come from different tables or passages of the source.

T4 sequence (Q9BYT3 whole entry): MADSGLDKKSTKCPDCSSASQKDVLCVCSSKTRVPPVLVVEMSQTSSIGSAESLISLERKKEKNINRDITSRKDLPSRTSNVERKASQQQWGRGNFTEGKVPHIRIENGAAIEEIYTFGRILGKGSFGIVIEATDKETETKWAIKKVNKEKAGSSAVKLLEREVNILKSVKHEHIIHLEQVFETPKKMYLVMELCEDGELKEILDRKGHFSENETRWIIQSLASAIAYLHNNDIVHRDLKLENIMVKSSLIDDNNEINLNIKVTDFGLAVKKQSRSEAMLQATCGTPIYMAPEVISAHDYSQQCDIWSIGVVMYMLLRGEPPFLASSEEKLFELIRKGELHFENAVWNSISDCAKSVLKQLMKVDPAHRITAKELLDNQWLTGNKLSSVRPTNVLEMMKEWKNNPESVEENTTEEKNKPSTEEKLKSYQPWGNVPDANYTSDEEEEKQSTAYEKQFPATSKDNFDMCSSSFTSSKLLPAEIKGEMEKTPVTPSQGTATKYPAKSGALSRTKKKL
T3 sequence (P05771 1-673 isoform P05771-2): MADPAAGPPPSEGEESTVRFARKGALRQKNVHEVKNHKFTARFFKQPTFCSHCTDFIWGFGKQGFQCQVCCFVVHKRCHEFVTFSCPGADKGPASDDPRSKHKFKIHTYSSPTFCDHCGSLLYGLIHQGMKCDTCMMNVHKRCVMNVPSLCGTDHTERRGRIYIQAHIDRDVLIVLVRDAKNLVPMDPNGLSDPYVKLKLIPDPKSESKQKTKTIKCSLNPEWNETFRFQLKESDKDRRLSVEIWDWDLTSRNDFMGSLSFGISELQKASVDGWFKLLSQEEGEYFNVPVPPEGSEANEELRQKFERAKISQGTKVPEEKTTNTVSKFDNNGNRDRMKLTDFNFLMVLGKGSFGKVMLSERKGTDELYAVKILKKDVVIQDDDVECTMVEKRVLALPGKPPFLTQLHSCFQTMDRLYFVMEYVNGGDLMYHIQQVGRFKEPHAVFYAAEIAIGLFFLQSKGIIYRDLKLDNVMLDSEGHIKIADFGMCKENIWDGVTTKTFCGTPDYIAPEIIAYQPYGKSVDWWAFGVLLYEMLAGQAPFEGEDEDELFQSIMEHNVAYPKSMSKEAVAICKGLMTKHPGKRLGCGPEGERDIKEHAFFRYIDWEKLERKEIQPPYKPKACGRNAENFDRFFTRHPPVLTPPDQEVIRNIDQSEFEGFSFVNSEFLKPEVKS
T6 sequence (P49760 whole entry): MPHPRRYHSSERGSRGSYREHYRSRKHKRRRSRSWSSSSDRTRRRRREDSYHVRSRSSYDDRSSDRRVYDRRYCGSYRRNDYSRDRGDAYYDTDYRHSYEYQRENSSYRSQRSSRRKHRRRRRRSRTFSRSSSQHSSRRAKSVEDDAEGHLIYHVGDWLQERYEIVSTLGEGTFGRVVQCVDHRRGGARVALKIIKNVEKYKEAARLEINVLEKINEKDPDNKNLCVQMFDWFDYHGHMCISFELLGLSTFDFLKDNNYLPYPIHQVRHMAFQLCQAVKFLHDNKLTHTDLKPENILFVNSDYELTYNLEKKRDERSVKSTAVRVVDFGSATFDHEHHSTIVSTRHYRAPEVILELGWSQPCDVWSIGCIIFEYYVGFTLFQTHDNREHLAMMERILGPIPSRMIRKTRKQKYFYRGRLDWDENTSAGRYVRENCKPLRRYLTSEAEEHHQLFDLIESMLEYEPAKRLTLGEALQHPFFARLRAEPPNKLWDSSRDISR

Turning to `Cn1ncc(Cl)c1-c1cc(C(=O)N[C@H](CN)Cc2cccc(F)c2)sc1Cl` [GSK2110183], the inhibition at 0.5 µM on BrSK1(h) is -3%; at EphA4(h), -1%; on PKCβII(h) it was 2%; against STK33(h), 56%; at VRK2(h) it was -8%. Moreover, the inhibition at 10 µM on BrSK1(h) is 10%; at EphA4(h), -12%; against PKCβII(h) it was 75%; against STK33(h) it was 94%; on VRK2(h), -5%. Also, the IC50 on PKCβ1 was 430 nM; against PKCβ2, above 1000 nM.

On to `Cn1ncc(Cl)c1-c1cc(C(=O)N[C@H](CN)Cc2ccc(F)c(F)c2)oc1Cl` [GSK2141795], for which the inhibition at 0.5 µM on BrSK1(h) (0.5 µM, read-out: % Inhibition) is -2%; against CLK2(h) (0.5 µM), 58%; on CLK3(h) (0.5 µM) it was 2%; at EphA4(h) (0.5 µM, read-out: % Inhibition), -10%; against PKBα(h) (0.5 µM), 99%; on PKBβ(h) (0.5 µM), 95%. Besides, the inhibition at 0.5 µM is 98% against PKBγ(h) (0.5 µM); 44% at PKCβII(h) (0.5 µM, read-out: % Inhibition); 82% at STK33(h) (0.5 µM, read-out: % Inhibition); -15% at VRK2(h) (0.5 µM, read-out: % Inhibition). Moreover, the inhibition at 10 µM is 7% at BrSK1(h) (10 µM, read-out: % Inhibition); 94% at CLK2(h) (10 µM); 59% at CLK3(h) (10 µM); -8% on EphA4(h) (10 µM, read-out: % Inhibition); 99% against PKBα(h) (10 µM); 99% on PKBβ(h) (10 µM). In addition, the inhibition at 10 µM against PKBγ(h) (10 µM) is 98%; on PKCβII(h) (10 µM, read-out: % Inhibition), 91%; at STK33(h) (10 µM, read-out: % Inhibition), 77%; on VRK2(h) (10 µM, read-out: % Inhibition) it was -5%. Besides, the “IC50 (nM) / EC50, FOXO_GFP translocation” value in series [1] is 47 nM and 47 ± 37 nM. Also, the “effect on cell cycle” value with A3 cells was “dose dependant increase in G1 cellular arrest”; with BT474 cells, “G1 arrest”; with I9.2 cells, “dose dependant increase in G1 cellular arrest”; in the series on LNCaP cells, “concentration-dependent increase in cells within the sub-G1 phase”. The blood concentrations in series [2] (30 mg/kg QDx7, time course, maintained for 8 h) fell in the range of 2000 to 3000 nM. The compound also displayed a concentration at 2 h in series [2] (SCID, mouse, whole blood, 30 mg/kg QDx7 oral, 2 h post last dose) of around 3000 nM. Also, the inhibition of tumour growth (TGI) in the series on CAPAN-2 tumor xenografts is reported as 26%; in the series with HPAC tumor xenografts it was 31%. Further, the “clinical activity, single agent” value in the series with cancer patients was “partial response and stable disease”.
